The values that follow come from patent publication US8013006B2.

Like-named read-outs stand apart in the source and are kept apart here.

This experiment has as its system HCV replicon. Description: microbe, parasite or virus in culture. Format: cell-based. The following applies: read-out: Replicon IC5Os.
Setting [1] is: Replicon IC50 values are determined by firefly luciferase signal, bicistronic replicon, 2 days.

As for `CCn1c(-c2cccc(NC(=O)OCC(C)(C)C)c2)c(C#N)c2ccc(OC)cc21` [Compound 356], the IC50 under setting [1] is more than 2000 nM.
Still for that read-out and setting: the figure for `CCC(C)OC(=O)Nc1ccc(-c2c(C#N)c3ccc(OC)cc3n2CC)cc1` (stereo not drawn) [Compound 357] is more than 2000 nM; for `C#CCOC(=O)Nc1ccc(-c2c(C#N)c3ccc(OC)cc3n2CC)cc1` [Compound 358] it is more than 2000 nM.
The same measure, in the same setting: the figure for `C=CC(C)OC(=O)Nc1ccc(-c2c(C#N)c3ccc(OC)cc3n2CC)cc1` (stereo not drawn) [Compound 359] is more than 2000 nM.
`C#CCCOC(=O)Nc1ccc(-c2c(C#N)c3ccc(OC)cc3n2CC)cc1` [Compound 360]: the IC50 under setting [1] is more than 2000 nM.
On the same count and under the same terms, in the case of `CCn1c(-c2ccc(S(=O)(=O)NC3CC3)cc2)c(C#N)c2ccc(OC)cc21` [Compound 363] it was 500 to 2000 nM.
`CCn1c(-c2ccc(NS(C)(=O)=O)cc2)c(C#N)c2ccc(C(F)(F)F)cc21` [Compound 365]: the IC50 (Hepatitis C virus, 48 h) is less than 500 nM.
Take `CCn1c(-c2ccc(NS(C)(=O)=O)cc2)c(C#N)c2ccccc21` [Compound 371]: the IC50 under setting [1] is more than 2000 nM.
The same measure, in the same setting: the figure for `CCOC(=O)Nc1ccc(-c2c(C#N)c3ccccc3n2CC)cc1` [Compound 372] is 500 to 2000 nM; for `CCn1c(-c2cccc(S(N)(=O)=O)c2)c(C#N)c2ccc(OC)cc21` [Compound 373] it is more than 2000 nM; for `CCCNS(=O)(=O)c1ccc(-c2c(C#N)c3ccc(OC)cc3n2CC)cc1` [Compound 374] it is more than 2000 nM.
Same read-out and setting: in the case of `CCn1c(-c2cccc(N)c2)c(C#N)c2ccc(O)cc21` [Compound 376] it was more than 2000 nM; in that of `CCn1c(-c2ccc(C(=O)N3CCCNCC3)cc2)c(C#N)c2ccc(OC)cc21` [Compound 377], more than 2000 nM; in that of `CCn1c(-c2ccc(C(=O)Nc3ccc(Cl)c(Cl)c3)cc2)c(C#N)c2ccc(OC)cc21` [Compound 380], more than 2000 nM.
The same measure, in the same setting: the figure for `CCn1c(-c2ccc(C(=O)Nc3ccc(C)cc3)cc2)c(C#N)c2ccc(OC)cc21` [Compound 381] is more than 2000 nM.
For `CCn1c(-c2ccc(C(=O)Nc3ccc(Cl)cc3)cc2)c(C#N)c2ccc(OC)cc21` [Compound 382], the IC50 under setting [1] was in the range of 500 to 2000 nM.
On the same count and under the same terms, the figure for `CCn1c(-c2cccc(NC(=O)C(C)C)c2)c(C#N)c2ccc(OC)cc21` [Compound 383] is more than 2000 nM; for `CCn1c(-c2ccc(C(=O)NC(C)C)cc2)c(C#N)c2ccc(OC)cc21` [Compound 385] it is 500 to 2000 nM; for `CCn1c(-c2ccc(C(=O)NC3CC3)cc2)c(C#N)c2ccc(OC)cc21` [Compound 386] it is more than 2000 nM.
The same measure, in the same setting: in the case of `CCn1c(-c2ccc(C(=O)N3CCC3)cc2)c(C#N)c2ccc(OC)cc21` [Compound 387] it was more than 2000 nM.
The same measure, in the same setting: the figure for `CCn1c(-c2ccc(C(=O)NCCO)cc2)c(C#N)c2ccc(OC)cc21` [Compound 388] is more than 2000 nM; for `CCn1c(-c2ccc(C(=O)NCCCN3CCOCC3)cc2)c(C#N)c2ccc(OC)cc21` [Compound 389] it is more than 2000 nM.
As to `CCn1c(-c2ccc(C(=O)Nc3ccccc3)cc2)c(C#N)c2ccc(OC)cc21` [Compound 390], the IC50 under setting [1] is more than 2000 nM.
Same read-out and setting: the figure for `CCn1c(-c2ccc(C(=O)Nc3ccc(OC)c(OC)c3)cc2)c(C#N)c2ccc(OC)cc21` [Compound 392] is more than 2000 nM; for `CCn1c(-c2ccc(N)cc2)c(C#N)c2cc(Cl)ccc21` [Compound 393] it is 500 to 2000 nM; for `CCn1c(-c2ccc(NS(C)(=O)=O)cc2)c(C#N)c2cc(Cl)ccc21` [Compound 394] it is less than 500 nM.
On the same count and under the same terms, in the case of `CCn1c(-c2cccc(NC(=O)NCCCl)c2)c(C#N)c2ccc(OC)cc21` [Compound 395] it was 500 to 2000 nM.
Regarding `CCCNC(=O)Nc1cccc(-c2c(C#N)c3ccc(OC)cc3n2CC)c1` [Compound 396], the IC50 (Hepatitis C virus, 48 h) is less than 500 nM.
Still for that read-out and setting: the figure for `CCn1c(-c2cccc(NC(=O)NC(C)C)c2)c(C#N)c2ccc(OC)cc21` [Compound 397] is less than 500 nM; for `CCCCNC(=O)Nc1cccc(-c2c(C#N)c3ccc(OC)cc3n2CC)c1` [Compound 398] it is less than 500 nM.
The same measure, in the same setting: the figure for `C=CCNC(=O)Nc1cccc(-c2c(C#N)c3ccc(OC)cc3n2CC)c1` [Compound 399] is less than 500 nM.
`CCn1c(-c2cccc(NC(=O)NCCCCl)c2)c(C#N)c2ccc(OC)cc21` [Compound 400]: the IC50 under setting [1] was in the range of 500 to 2000 nM.
As for `CCNC(=O)Nc1cccc(-c2c(C#N)c3ccc(OC)cc3n2CC)c1` [Compound 401], under “Hepatitis C virus, 48 h”, the IC50 is less than 500 nM.
With `CCn1c(-c2cccc(NC(=O)NCCc3ccccc3)c2)c(C#N)c2ccc(OC)cc21` [Compound 402], the IC50 under setting [1] lay in the range of 500 to 2000 nM.
For `CCn1c(-c2cccc(NC(=O)Nc3ccc(C(C)C)cc3)c2)c(C#N)c2ccc(OC)cc21` [Compound 403], the IC50 (Hepatitis C virus, 48 h) lay in the range of 500 to 2000 nM.
For `CCn1c(-c2cccc(NC(=O)Nc3ccc(C)cc3)c2)c(C#N)c2ccc(OC)cc21` [Compound 404], under setting [1], the IC50 was more than 2000 nM.
Regarding `CCn1c(-c2cccc(NC(=O)Nc3ccccc3C)c2)c(C#N)c2ccc(OC)cc21` [Compound 405], under “Hepatitis C virus, 48 h”, the IC50 lay within 500 to 2000 nM.
Still for that read-out and setting: in the case of `CCn1c(-c2cccc(NC(=O)Nc3ccc(Oc4ccccc4)cc3)c2)c(C#N)c2ccc(OC)cc21` [Compound 406] it was less than 500 nM.
In the case of `CCOC(=O)c1ccc(NC(=O)Nc2cccc(-c3c(C#N)c4ccc(OC)cc4n3CC)c2)cc1` [Compound 407], the IC50 under setting [1] lay in the range of 500 to 2000 nM.
As for `COc1ccc2c(C#N)c(-c3ccc(NS(C)(=O)=O)cc3)n(CC(C)C)c2c1` [Compound 409], the IC50 under setting [1] fell in the range of 500 to 2000 nM.
As for `CCOc1ccc2cc(-c3ccc(NS(C)(=O)=O)cc3)n(CC)c2c1` [Compound 410], the IC50 under setting [1] is 500 to 2000 nM.
Take `CCOc1ccc2cc(-c3ccc(NS(=O)(=O)CC)cc3)n(CC)c2c1` [Compound 411]: the IC50 under setting [1] was 500 to 2000 nM.
Same read-out and setting: in the case of `CCCn1c(-c2ccc(NS(C)(=O)=O)cc2)cc2ccc(OCC)cc21` [Compound 412] it was more than 2000 nM; in that of `CCOc1ccc2c(C#N)c(-c3ccc(NS(=O)(=O)CC)cc3)n(C)c2c1` [Compound 414], 500 to 2000 nM; in that of `CCCn1c(-c2ccc(NS(C)(=O)=O)cc2)c(C#N)c2ccc(OCC)cc21` [Compound 417], less than 500 nM.
Take `CCOc1ccc2c(C#N)c(-c3ccc(NS(C)(=O)=O)cc3)n(C(C)C)c2c1` [Compound 419]: the IC50 under setting [1] is 500 to 2000 nM.
Same read-out and setting: in the case of `CCn1c(-c2ccc(NC(=O)CCl)cc2)c(C#N)c2ccc(C(F)(F)F)cc21` [Compound 421] it was more than 2000 nM; in that of `CCn1c(-c2ccc(NC(=O)c3ccccc3)cc2)c(C#N)c2ccc(C(F)(F)F)cc21` [Compound 423], more than 2000 nM; in that of `CCn1c(-c2ccc(NC(=O)N3CCOCC3)cc2)c(C#N)c2ccc(C(F)(F)F)cc21` [Compound 424], more than 2000 nM.
Take `CCn1c(-c2ccc(NC(=O)C3CC3)cc2)c(C#N)c2ccc(C(F)(F)F)cc21` [Compound 425]: the IC50 under setting [1] is 500 to 2000 nM.
As for `CCn1c(-c2ccc3ccccc3c2)c(C#N)c2ccc(OC)cc21` [Compound 426], the IC50 under setting [1] lay within 500 to 2000 nM.
Still for that read-out and setting: in the case of `CCn1c(-c2ccc3c(ccn3C)c2)c(C#N)c2ccc(OC)cc21` [Compound 427] it was 500 to 2000 nM.
The same measure, in the same setting: the figure for `CCn1c(-c2cccc(N)c2)c(C#N)c2cc(Cl)ccc21` [Compound 431] is more than 2000 nM; for `CCNC(=O)c1ccc(-c2c(C#N)c3ccccc3n2CC)cc1` [Compound 432] it is more than 2000 nM; for `CCn1c(-c2ccc(C(=O)NC3CC3)cc2)c(C#N)c2ccccc21` [Compound 433] it is more than 2000 nM.
Still for that read-out and setting: the figure for `CCOC(=O)Nc1cccc(-c2c(C#N)c3cc(Cl)ccc3n2CC)c1` [Compound 434] is more than 2000 nM; for `CCn1c(-c2ccc(S(N)(=O)=O)cc2)c(C#N)c2cc(F)ccc21` [Compound 437] it is more than 2000 nM; for `CCn1c(-c2ccc(S(=O)(=O)NC)cc2)c(C#N)c2cc(F)ccc21` [Compound 438] it is more than 2000 nM.
`CCn1c(-c2ccc(NS(C)(=O)=O)cc2)c(C#N)c2cc(F)ccc21` [Compound 439]: the IC50 under setting [1] was in the range of 500 to 2000 nM.
The same measure, in the same setting: in the case of `CCn1c(-c2ccc(NS(=O)(=O)CC)cc2)c(C#N)c2cc(F)ccc21` [Compound 440] it was 500 to 2000 nM.
Same read-out and setting: in the case of `CCOC(=O)Nc1cccc(-c2c(C#N)c3ccc(OCCCn4cncn4)cc3n2CC)c1` [Compound 441] it was 500 to 2000 nM; in that of `CCn1c(-c2ccc(NC(=O)NCCCCl)cc2)c(C#N)c2ccc(OC)cc21` [Compound 443], more than 2000 nM; in that of `CCn1c(-c2ccc(NC(=O)NCCc3ccccc3)cc2)c(C#N)c2ccc(OC)cc21` [Compound 444], more than 2000 nM.
In the case of `CCn1c(-c2ccc(NC(=O)Nc3ccc(C(C)C)cc3)cc2)c(C#N)c2ccc(OC)cc21` [Compound 445], the IC50 (Hepatitis C virus, 48 h) was 500 to 2000 nM.
For the compound `CCn1c(-c2ccc(NC(=O)Nc3ccc(Oc4ccccc4)cc3)cc2)c(C#N)c2ccc(OC)cc21` [Compound 446], the IC50 under setting [1] was more than 2000 nM.
As to `CCOC(=O)Nc1cccc(-c2c(C#N)c3ccc(OCCCCl)cc3n2CC)c1` [Compound 447], the IC50 (Hepatitis C virus, 48 h) was less than 500 nM.
As to `CCn1c(-c2ccc(NS(=O)(=O)c3cn(C)cn3)cc2)c(C#N)c2ccc(OC)cc21` [Compound 448], the IC50 under setting [1] was more than 2000 nM.
On the same count and under the same terms, in the case of `CCn1c(-c2ccc(NS(=O)(=O)c3ccc(N4CCOCC4)nc3)cc2)c(C#N)c2ccc(OC)cc21` [Compound 449] it was more than 2000 nM.
The same measure, in the same setting: in the case of `CCOC(=O)Nc1ccc(-c2c(C#N)c3ccc(C(F)(F)F)cc3n2CC)cc1` [Compound 450] it was 500 to 2000 nM; in that of `CCn1c(-c2ccc(NS(=O)(=O)c3cccs3)cc2)c(C#N)c2ccc(OC)cc21` [Compound 451], more than 2000 nM; in that of `CCn1c(-c2ccc(NS(=O)(=O)c3cccc4cccnc34)cc2)c(C#N)c2ccc(OC)cc21` [Compound 452], more than 2000 nM.
On to `CCCOC(=O)Nc1ccc(-c2c(C#N)c3ccc(C(F)(F)F)cc3n2CC)cc1` [Compound 453], for which the IC50 under setting [1] was 500 to 2000 nM.
For the compound `CCn1c(-c2ccc(NC(=O)OCc3ccccc3)cc2)c(C#N)c2ccc(C(F)(F)F)cc21` [Compound 457], under setting [1], the IC50 was 500 to 2000 nM.
On the same count and under the same terms, in the case of `CCn1c(-c2ccc(N)cc2)c(C#N)c2cc(-c3cccc(OC)c3)ccc21` [Compound 459] it was 500 to 2000 nM.
The same measure, in the same setting: in the case of `CCn1c(-c2cccc(N)c2)c(C#N)c2cc(-c3cccc(OC)c3)ccc21` [Compound 460] it was 500 to 2000 nM.
